The nature of data set [1]: Stability in aqueous solution (half-life of enamine derivatives). Particulars: pH 7.4 phosphate buffer, μ 0.15, 25° C., UV absorption spectrometry; "stable" = enamine structure retained even after 6 hours. It is filed as physicochemical. The procedure: To examine the stability in water of the enamine derivatives (I) obtained above, some representative compounds were selected and their half-lives [t 0.5 (min.)] in pH 7.4 phosphate buffer (μ: 0.15, temp.: 25° C.) were determined by ultraviolet absorption spectrometry. In the Table, "stable" means that the enamine structure was retained even after 6 hours.

Data set [2] is described as follows: Rectal suppositories of CET-Na with enamine derivative, concentration in blood. It is filed as in vivo. Particulars: dog. As to the method: These suppositories were rectally administered to dogs and the absorbabilities of the active components were investigated by measuring the blood concentrations.
The blood concentrations were measured in conformity with the biological assay method in the Antibiotic Standard of Japan. The cup method was employed with Sarcina lutea for penicillins and Bacillus subtilis for cephalosporins.

Data set [3] in a line: Rectal ointment of CEX.H2O with enamine derivative, blood concentration. It is filed as in vivo, rabbit. Particulars: rectal ointment CEX.H2O 20%, enamine derivative 10%, dose 50 mg CEX.H2O/kg. As to the method: (§1) AB-PC and cephalexin (briefly, CEX), both of which are sparingly absorbed from the rectum, are also tested. Thus, enamine derivatives (I) and these antibiotics were used to prepare rectal ointments in accordance with established practice. The ointments were administered to rabbits to investigate the peak blood concentrations (μg/ml) and AUC (μg.min./ml).
Dose: 50 mg CEX . H2 O/kg

Data set [4] is described as follows: Rectal ointment of CET-Na with enamine derivative, blood concentration. As to conditions: CET; rectal ointment CET.Na 20%, enamine derivative 10%; dose 50 mg CET.Na/kg. The data set is classed as in vivo, rabbit. The procedure: Cephalothin sodium (briefly CET-Na), a drug which is sparingly absorbed from the rectum, was selected for a test. Thus, CET-Na was dispersed in liquid paraffin-white vaseline base to prepare rectal ointment. The ointment was administered to rabbits by the rectal route. […] The blood concentration was measured in conformity with the biological assay method in the Antibiotic Standard of Japan. […]

A short description of data set [5]: Rectal ointment of AB-PC.Na with enamine derivative, blood concentration. It is filed as in vivo, rabbit. As to conditions: rectal ointment AB-PC.Na 10%, enamine derivative 10%, dose 15 mg AB-PC.Na/kg. The procedure:
as §1
Dose: 15mg AB-PC . Na/kg
Compounds 3, 5, 13 and 14 were used as said enamine derivatives (I) in Recipes 4, 5, 6 and 7, respectively.

A short description of data set [6]: Rectal suppositories of AB-PC-Na with enamine derivative, concentration in blood. It is filed as in vivo. Particulars: AB-PC-Na 75mg, enamine derivative 120mg (10%), base SB-W 1005mg, dog. As to the method: These suppositories were rectally administered to dogs and the absorbabilities of the active components were investigated by measuring the blood concentrations. The blood concentrations were measured in conformity with the biological assay method in the Antibiotic Standard of Japan. The cup method was employed with Sarcina lutea for penicillins and Bacillus subtilis for cephalosporins.

Data set [7] is described as follows: Rectal insulin suppositories (Recipes 35-41), glucose response. It is filed as in vivo. Particulars: rectal suppository 6 I.U. insulin, enamine derivative 0.025g (5%). From the text: These suppositories were rectally administered to rabbits (R, 2.5-3kg) and dogs (D, 12-13kg).
The mark [8] stands for this setting: CET-Na 500mg, enamine derivative 150mg (10%), base Witepsol H-15 850mg.
[9] abbreviates: CET-Na 75mg, enamine derivative 60mg (5%), base SB-W 1065mg.
The mark [10] stands for this setting: CET-Na 75mg, enamine derivative 60mg (5%), base Witepsol H-15 1065mg.
Where [11] appears, read: CET-Na 75mg, enamine derivative 120mg (10%), base Witepsol H-15 1005mg.

Regarding `CCOC(=O)C=C(C)NC(Cc1ccccc1)C(=O)[O-].[Na+]` (racemic) [Compound 10, N-(1-Methyl-2-ethoxycarbonylvinyl)-DL-phenylalanine sodium salt], the “half-life t 0.5” value in data set [1] is 15.7 min. For the same compound, in data set [2] (setting [8]), the “Concentration in blood, 15 min.” value was found to be 15.30 µg/mL; the “Concentration in blood, 30 min.” value came to 11.73 µg/mL; the “Concentration in blood, 60 min.” value is 6.75 µg/mL; the “Concentration in blood, 120 min.” value amounted to 2.20 µg/mL.

As usually defined, the AUC is concentration integrated over time. As to `CCOC(=O)C=C(C)NCCCC(=O)[O-].[Na+]` [Compound 2, N-(1-Methyl-2-ethoxycarbonylvinyl)-γ-aminobutyric acid sodium salt], the “half-life t 0.5” value in data set [1] was 18.8 min. The AUC in data set [3] turned out to be 278 µg·min/mL; in data set [4], 315 µg·min/mL. The results for the Peak blood concentration in data set [3] and in data set [4] were 6.7 µg/mL and 6.3 µg/mL, respectively.

As to `CC(=O)C=C(C)N[C@@H](C(=O)[O-])c1ccccc1.[Na+]` [Compound 4, N-(1-Methyl-2-acetylvinyl)-D-phenylglycine sodium salt], in data set [1], the “half-life t 0.5” value is listed as “Stable”. In data set [4], this compound registered an AUC of 568 µg·min/mL and a Peak blood concentration of 11.0 µg/mL.

Turning to `CCOC(=O)C(=CN[C@@H](C(=O)[O-])c1ccccc1)C(=O)OCC.[Na+]` [Compound 5, N-[2,2-bis(ethoxycarbonyl)vinyl]-D-phenylglycine sodium salt], the “half-life t 0.5” value in data set [1] was “Stable”. In data set [5], this compound yielded an AUC of 149 µg·min/mL and a Peak blood concentration of 4.7 µg/mL. In addition, in data set [4], the AUC amounted to 306 µg·min/mL and the Peak blood concentration was 6.1 µg/mL.

Take `CC(N[C@@H](C(=O)[O-])c1ccccc1)=C1CCOC1=O.[Na+]` [Compound 6, N-[1-(Tetrahydro-2-furanone-3-ylidene)ethyl]-D-phenylglycine sodium salt]: in data set [1], the “half-life t 0.5” value is 478 min.

Consider `CCCCOC(=O)C1=C(N[C@@H](C(=O)[O-])c2ccccc2)CCC1.[Na+]` [Compound 7, N-(2-Butoxycarbonyl-1-cyclopenten-1-yl)-D-phenylglycine sodium salt], for which the “half-life t 0.5” value in data set [1] is “Stable”.

As to `CCOC(=O)C=C(C)N[C@@H](C(=O)OC)c1ccccc1` [Compound 8, Methyl-N-(1-methyl-2-ethoxycarbonylvinyl)-D-phenylglycinate], in data set [4], the AUC stood at 49 µg·min/mL and the Peak blood concentration turned out to be 3.8 µg/mL.

Take `CCOC(=O)C=C(C)N1CCC[C@H]1C(=O)[O-].[Na+]` [Compound 13, N-(1-Methyl-2-ethoxycarbonylvinyl)-L-proline sodium salt]: the “half-life t 0.5” value in data set [1] is 3.1 min. Moreover, the AUC amounted to 108 µg·min/mL in data set [5], 733 µg·min/mL in data set [3] and 25 µg·min/mL in data set [4]. Also, the values for the Peak blood concentration in data set [5], in data set [3] and in data set [4] were 2.6 µg/mL, 6.5 µg/mL and 2.5 µg/mL, respectively.

`CCOC(=O)C=C(C)NCCS(=O)(=O)[O-].[Na+]` [Compound 14, N-(1-Methyl-2-ethoxycarbonylvinyl)taurine sodium salt]: the “half-life t 0.5” value in data set [1] is 24.0 min. Further, the area under the curve (AUC) in data set [5] came out at 239 µg·min/mL; in data set [4], 250 µg·min/mL. In addition, the Peak blood concentration in data set [5] was determined as 5.9 µg/mL; in data set [4], 7.8 µg/mL.

Turning to `CCOC(=O)C=C(C)NCC(=O)NCC(=O)[O-].[Na+]` [Compound 15, N-(1-Methyl-2-ethoxycarbonylvinyl)glycylglycine sodium salt], in data set [1], the “half-life t 0.5” value is 31.8 min. Further, in data set [4], the AUC worked out at 102 µg·min/mL and the Peak blood concentration turned out to be 1.8 µg/mL.

With `CCOC(=O)C=C(C)N[C@@H](CCC(=O)[O-])C(=O)[O-].[Na+].[Na+]` [Compound 16, N-(1-Methyl-2-ethoxycarbonylvinyl)-L-glutamic acid sodium salt], the “half-life t 0.5” value in data set [1] turned out to be 16.3 min. Also, in data set [6], the “Concentration in blood, 15 min.” value was 0.69 µg/mL; the “Concentration in blood, 30 min.” value turned out to be 0.48 µg/mL; the “Concentration in blood, 60 min.” value was 0.52 µg/mL; the “Concentration in blood, 120 min.” value came to 0.29 µg/mL.

`CCOC(=O)C=C(C)NCCCC[C@H](NC(C)=CC(=O)OCC)C(=O)[O-].[Na+]` [Compound 17, N,N'-Bis(1-methyl-2-ethoxycarbonylvinyl)-L-lysine sodium salt]: the “half-life t 0.5” value in data set [1] amounted to 22.9 min. For the same compound, in data set [4], the AUC turned out to be 396 µg·min/mL and the Peak blood concentration worked out at 8.7 µg/mL.

Turning to `CCOC(=O)C(C)OC(=O)C=C(C)NCC(=O)[O-].[Na+]` (stereo not shown) [Compound 32, N-[1-Methyl-2-(1-ethoxycarbonyl-ethoxycarbonyl)vinyl]glycine sodium salt], in data set [7] (dog 12-13kg), the “Blood glucose response (6 I.U.)” value is 30-40%, the “Time course: Lowest level” value is 30 to 60 min, the “Time course: Onset” value worked out at 30 min and the “Time course: Return to pre-medication level” value (shortened to “Time course: Return”) stood at 120 min. In data set [7] (rabbit 2.5-3kg), the “Blood glucose response (6 I.U.)” value is recorded as 45-55%, the “Time course: Lowest level” value was 45 to 60 min, the “Time course: Onset” value amounted to 15 min and the “Time course: Return” value is 150 min. In addition, in data set [2] (setting [9]), the “Concentration in blood, 15 min.” value was 1.50 µg/mL; the “Concentration in blood, 30 min.” value was 1.12 µg/mL; the “Concentration in blood, 60 min.” value was found to be 0.73 µg/mL; the “Concentration in blood, 120 min.” value was 0.40 µg/mL.

Turning to `CCOC(=O)C(C)OC(=O)C=C(C)N[C@@H](Cc1ccccc1)C(=O)[O-].[Na+]` (stereo partly drawn) [Compound 34, N-[1-Methyl-2-(1-ethoxycarbonyl-ethoxycarbonyl)vinyl]-L-phenylalanine sodium salt], in data set [7] (rabbit 2.5-3kg), the “Blood glucose response (6 I.U.)” value is on record as 45-55%, the “Time course: Lowest level” value was in the range of 45 to 60 min, the “Time course: Onset” value was determined as 15 min and the “Time course: Return” value came to 150 min. Also, in data set [2] (setting [10]), the “Concentration in blood, 15 min.” value was 1.25 µg/mL; the “Concentration in blood, 30 min.” value was 0.83 µg/mL; the “Concentration in blood, 60 min.” value was found to be 0.61 µg/mL; the “Concentration in blood, 120 min.” value was 0.39 µg/mL.

With `CCOC(=O)CNC(=O)C=C(C)N[C@@H](Cc1ccccc1)C(=O)[O-].[Na+]` [Compound 37, N-(1-Methyl-2-ethoxycarbonylmethylcarbamoyl-vinyl)-L-phenylalanine sodium salt], in data set [7] (rabbit 2.5-3kg), the “Blood glucose response (6 I.U.)” value is 20-30%, the “Time course: Lowest level” value fell in the range of 30 to 60 min, the “Time course: Onset” value amounted to 30 min and the “Time course: Return” value was found to be 120 min. Also, in data set [2] (setting [11]), the “Concentration in blood, 15 min.” value came to 1.50 µg/mL; the “Concentration in blood, 30 min.” value amounted to 1.28 µg/mL; the “Concentration in blood, 60 min.” value turned out to be 0.87 µg/mL; the “Concentration in blood, 120 min.” value turned out to be 0.44 µg/mL.

(Values after patent publication US4277465A, “Adjuvant for promoting absorption of therapeutically active substances through the digestive tract” (Kyoto Yakuhin Kogyo Kabushiki Kaisha, priority 1978, dated 1981).)
